One data set concerns the target T1, CDK1/cyclin B (Homo sapiens, UniProt P06493).
T1 construct: His; made in house; host or cells: Sf9 insect cells (baculovirus)
Kind of data set: CDK1/cyclin B kinase assay (GST-Rb phosphorylation). The format is biochemical. As to conditions: Table 1.

In the next data set the target is T2, CDK2/cyclin E (Homo sapiens, UniProt P24941).
T2 construct: His; made in house; host or cells: Sf9 insect cells (baculovirus)
Kind of data set: CDK2/cyclin E kinase assay (GST-Rb phosphorylation).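 Note: enzyme source: His-tagged CDK2/cyclin E co-expressed in Sf9 insect cells via baculovirus, then purified by metal-chelate chromatography.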 The format is biochemical.

A further data set concerns the target ERK-2 (Homo sapiens, UniProt P28482). Kind of data set: ERK-2 kinase assay (kinase panel). In kind it is biochemical. As to conditions: Table 1.
The target in the next data set is T3, PKCa (Homo sapiens, UniProt P17252).
T3 construct: 6×His (C); made in house; host or cells: Sf9 insect cells (baculovirus)
Kind of data set: PKCα kinase assay (Histone 3 phosphorylation). In kind it is biochemical. As to conditions: Table 1. The protocol: PKCα kinase activity may be measured by the incorporation of radio-labeled phosphate in Histone 3, as described. The reaction mixture (total volume 65 μl) consist of 50 mM Tris-HCl, 1 mM Calcium acetate, 3 mM DTT, 0.03 mg/ml Phosphatidylserine, 2.4 μg/ml PMA, 0.04% NP40, 12 mM Mg/Cl, purified PKCα-100 ng, Histone 3, 0.2 mg/ml, 100 μM ATP, 0.2 μCi {γ-^32P}-ATP. The reaction is carried over 15 min at 37° C. in microplate shaker and is stopped by adding 10 μl 75 mM orthophosphoric acid and placing the plate on ice. 50 μl of the reaction mixture is transferred onto P81 filterplate and after washing off the free radioactive phosphate (3 times with 200 μl 75 mM orthophosphoric acid per well) 50 μl of scintillation liquid (Microscint 40) were added to each well and the radioactivity is measured on Scintillation counter (Topcount, HP).

The target in a further data set is SAPK2a (Homo sapiens, UniProt Q16539). Kind of data set: SAPK2a kinase assay (kinase panel). In kind it is biochemical. The conditions noted are these: Table 1.
A further data set addresses S6. Kind of data set: S6 kinase assay (kinase panel). The conditions noted are these: Table 1. The format is biochemical.
The target in a further data set is CDK4/cyclin D1 (Homo sapiens, UniProt P11802). As to the kind of experiment: biochemical.
In a further data set the test system is A549. As to the kind of experiment: 72-h MTT cytotoxicity assay, A549. The format is cell-based, human. The conditions noted are these: Homo sapiens. The protocol:
(§1) Selected compounds from the above examples were subjected to a standard cellular proliferation assay using a range of different human tumour cell lines. Standard 72-h MTT (thiazolyl blue; 3-{4,5-dimethylthiazol-2-yl}-2,5-diphenyltetrazolium bromide) assays were performed (Haselsberger, K.; Peterson, D. C.; Thomas, D. G.; Darling, J. L. Anti Cancer Drugs 1996, 7, 331-8; Loveland, B. E.; Johns, T. G.; Mackay, I. R.; Vaillant, F.; Wang, Z. X.; Hertzog, P. J. Biochemistry International 1992, 27, 501-10). Human tumour cell lines were obtained from the ATCC (American Type Culture Collection, 10801 University Boulevard, Manessas, Va. 20110-2209, USA).

Another data set relates to Saos-2. Kind of data set: 72-h MTT cytotoxicity assay, Saos-2. The format is cell-based. As to conditions: Homo sapiens, SAOS-2, read-out: 72-h Cytotoxicity IC 50 Saos-2; Table 3, 72-h MTT. The protocol:
as §1
For orientation: Tetrazolium dyes change colour on reduction, which living cells bring about.

A further data set concerns MCF-7. As to the kind of experiment: 72-h MTT cytotoxicity assay, MCF-7. The conditions noted are these: Homo sapiens, MCF7, read-out: 72-h Cytotoxicity IC 50 MCF-7; Table 3, 72-h MTT. In kind it is cell-based. The protocol: as §1
For the next data set, the system named is AGS. Kind of data set: 72-h MTT cytotoxicity assay, AGS. The format is cell-based. As to conditions: Homo sapiens, read-out: 72-h Cytotoxicity IC 50 AGS, Table 3, 72-h MTT. The protocol: as §1
A further data set concerns DU145. As to the kind of experiment: 72-h MTT cytotoxicity assay, DU145. As to conditions: Homo sapiens, DU-145, read-out: 72-h Cytotoxicity IC 50 DU145; Table 3, 72-h MTT. The format is cell-based. The protocol: as §1
In a further data set the test system is HeLa. As to the kind of experiment: 72-h MTT cytotoxicity assay, HeLa. In kind it is cell-based. The conditions noted are these: Homo sapiens, read-out: 72-h Cytotoxicity IC 50 HeLa, Table 3, 72-h MTT. The protocol:
as §1

For another data set, the system named is A549 cells. Kind of data set: Mitotic index HitKit (Cellomix). As to conditions: toxicity above this concentration. The format is cell-based, human. The source says:
The effect of compound 28 on the mitotic index was studied using mitotic index HitKit (Cellomix). Vinblastine was used as control in the experiments.
Above this concentration a decrease in the number of mitotic cells is observed which correlates with a decrease in the total number of cells.

Data set [1] deals with Human osteosarcoma tumour cells (Saos-2). Kind of data set: Mitotic arrest and apoptosis by phase-contrast microscopy. As to conditions: Saos-2 cells, 1 μM, 48 h. In kind it is cell-based. The protocol:
Human osteosarcoma tumour cells (Saos-2) were treated with 1 μM of compound 28 for 48 h. […] Compound 28-induced accumulation of mitotic cells was further quantified using mitotic index HitKit (Cellomix).

The test system of data set [2] is Human lung carcinoma cells (A549). Kind of data set: Induction of programmed cell death (cytoplasmic vacuolation). In kind it is cell-based. As to conditions: 10 μM, 16 h. The protocol: In addition to the induction of apoptosis some of the compounds of the invention are capable of inducing forms of programmed cell death that is distinct from apoptosis by the criteria of morphology. Human lung carcinoma cells (A549) were treated for 16 h with 10 μM compound 28.

Another data set has as its system human tumour cell lines. As to the kind of experiment: Cell-based assays (anti-proliferative).
From the text: These assays including methods for their performance are described in more detail in Example 23. Using such cell line and enzymes assays it may be determined whether a compound is anti-proliferative in the context of the present invention.
as §1

The mark [3] stands for this setting: A549, 72 h, read-out: 72-h Cytotoxicity IC 50 A549, Table 3, 72-h MTT.
The mark [4] stands for this setting: Table 4, additional data for cytotoxicity assay using the A549 cell line, read-out: A549.
The mark [5] stands for this setting: Table 2, further results for CDK2/cyclin E inhibition, read-out: CDK2/cyclin E.

Entries after “also recorded” stand apart in the source; their conditions may differ. Read-outs that look alike come from different tables or passages of the source. Where only a bound is given, the exact number is not on record here.

T1 sequence (P06493 whole entry, species assumed): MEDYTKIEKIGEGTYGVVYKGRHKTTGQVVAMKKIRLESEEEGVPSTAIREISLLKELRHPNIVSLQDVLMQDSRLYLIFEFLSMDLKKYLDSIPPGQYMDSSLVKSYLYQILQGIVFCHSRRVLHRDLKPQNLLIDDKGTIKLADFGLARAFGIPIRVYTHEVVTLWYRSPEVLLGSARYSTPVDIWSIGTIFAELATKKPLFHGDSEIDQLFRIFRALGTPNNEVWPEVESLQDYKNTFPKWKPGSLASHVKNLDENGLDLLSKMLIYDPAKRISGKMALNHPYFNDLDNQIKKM
T1 sequence (P14635 whole entry partner, species assumed): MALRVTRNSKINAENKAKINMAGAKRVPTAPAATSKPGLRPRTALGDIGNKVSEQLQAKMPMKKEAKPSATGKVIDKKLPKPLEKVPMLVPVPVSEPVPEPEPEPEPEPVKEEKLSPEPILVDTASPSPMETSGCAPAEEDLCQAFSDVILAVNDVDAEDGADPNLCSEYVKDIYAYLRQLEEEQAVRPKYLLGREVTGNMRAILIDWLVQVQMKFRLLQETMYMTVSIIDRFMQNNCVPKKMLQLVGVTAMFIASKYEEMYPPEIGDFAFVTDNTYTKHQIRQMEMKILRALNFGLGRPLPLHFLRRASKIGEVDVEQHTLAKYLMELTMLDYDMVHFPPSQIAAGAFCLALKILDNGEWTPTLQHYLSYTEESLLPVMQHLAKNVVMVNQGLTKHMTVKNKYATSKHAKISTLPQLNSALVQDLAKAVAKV
ERK-2, sequence (P28482 whole entry, species assumed): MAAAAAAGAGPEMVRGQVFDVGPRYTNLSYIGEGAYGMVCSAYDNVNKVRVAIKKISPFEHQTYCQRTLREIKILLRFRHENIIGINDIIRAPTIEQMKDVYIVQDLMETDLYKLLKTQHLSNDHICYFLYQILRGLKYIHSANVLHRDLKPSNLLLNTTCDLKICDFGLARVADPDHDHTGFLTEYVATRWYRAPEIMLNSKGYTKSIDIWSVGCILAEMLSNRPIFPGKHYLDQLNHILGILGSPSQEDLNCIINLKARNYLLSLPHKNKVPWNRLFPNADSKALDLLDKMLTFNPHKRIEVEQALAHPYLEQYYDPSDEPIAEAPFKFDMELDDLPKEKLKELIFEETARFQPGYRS
SAPK2a, sequence (Q16539 whole entry, species assumed): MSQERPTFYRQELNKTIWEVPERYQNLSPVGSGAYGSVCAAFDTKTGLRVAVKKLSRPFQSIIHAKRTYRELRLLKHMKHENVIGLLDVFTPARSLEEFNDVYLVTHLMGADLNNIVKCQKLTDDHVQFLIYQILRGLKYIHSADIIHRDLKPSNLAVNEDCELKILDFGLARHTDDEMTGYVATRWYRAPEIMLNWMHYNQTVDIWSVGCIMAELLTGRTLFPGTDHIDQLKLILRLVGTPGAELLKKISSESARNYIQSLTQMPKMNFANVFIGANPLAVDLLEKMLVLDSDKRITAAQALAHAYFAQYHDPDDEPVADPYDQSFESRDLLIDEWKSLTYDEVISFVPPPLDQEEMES
CDK4/cyclin D1, sequence (P11802 whole entry, species assumed): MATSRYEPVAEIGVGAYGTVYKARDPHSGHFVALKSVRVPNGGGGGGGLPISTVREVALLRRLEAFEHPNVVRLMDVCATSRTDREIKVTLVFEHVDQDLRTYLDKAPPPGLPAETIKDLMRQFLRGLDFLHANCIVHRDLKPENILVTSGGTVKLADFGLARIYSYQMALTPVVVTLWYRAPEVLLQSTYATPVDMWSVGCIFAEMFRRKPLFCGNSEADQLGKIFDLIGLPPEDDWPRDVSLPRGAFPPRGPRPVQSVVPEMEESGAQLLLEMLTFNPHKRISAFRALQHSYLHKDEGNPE
CDK4/cyclin D1, sequence (P24385 whole entry partner, species assumed): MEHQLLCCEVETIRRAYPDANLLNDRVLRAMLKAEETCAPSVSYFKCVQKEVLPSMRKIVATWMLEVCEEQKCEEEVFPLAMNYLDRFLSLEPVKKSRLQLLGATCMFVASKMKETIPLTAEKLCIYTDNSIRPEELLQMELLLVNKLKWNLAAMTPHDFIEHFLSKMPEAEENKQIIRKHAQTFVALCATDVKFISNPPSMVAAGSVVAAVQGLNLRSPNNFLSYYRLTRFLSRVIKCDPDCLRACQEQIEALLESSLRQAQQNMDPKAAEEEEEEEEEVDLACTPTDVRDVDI

For `Cc1nc(C)c(-c2ccnc(Nc3ccc(Cl)cc3)n2)s1` [Compound 6, (4-Chloro-phenyl)-{4-(2,4-dimethyl-thiazol-5-yl)-pyrimidin-2-yl}-amine], the IC50 at CDK1/cyclin B was > 20000 nM; against CDK2/cyclin E (CDK2/cyclin E, Table 2, further results for CDK2/cyclin E inhibition) it was 5000 ± 9000 nM; against CDK2/cyclin E (Kinase assay IC50 CDK2/cyclin E, Table 1), 9000 ± 12000 nM; against ERK-2, > 20000 nM; against PKCa, > 20000 nM; against SAPK2a, > 20000 nM. Besides, the IC50 was > 20000 nM against S6 and 500 ± 500 nM on CDK4/cyclin D1.
In the case of `Cc1nc(C)c(-c2ccnc(Nc3cccc([N+](=O)[O-])c3)n2)s1` [Compound 12, {4-(2,4-Dimethyl-thiazol-5-yl)-pyrimidin-2-yl}-(3-nitro-phenyl)-amine], the IC50 at CDK1/cyclin B is 100 nM; on ERK-2 it was > 20000 nM; at PKCa it was > 20000 nM; against SAPK2a, > 20000 nM; at S6, > 20000 nM; in the data set with A549 (setting [3]), 1500 ± 300 nM. Further, the IC50 in the data set with A549 (setting [4]) worked out at 200 nM; in the data set with Saos-2, 1400 ± 300 nM; with MCF-7 it was 1700 ± 100 nM; in the data set on AGS it was 1000 ± 200 nM; in the data set on DU145, 1000 ± 100 nM; with HeLa, 1200 ± 200 nM.
On to `Cc1nc(C)c(-c2ccnc(Nc3ccc(F)cc3)n2)s1` [Compound 21, {4-(2,4-Dimethyl-thiazol-5-yl)-pyrimidin-2-yl}-(4-fluoro-phenyl)-amine], for which the IC50 against CDK1/cyclin B was 200 nM; at ERK-2, 2500 nM; at PKCa, > 20000 nM; on SAPK2a, > 20000 nM; at S6, 1000 nM; in the data set on A549 (setting [3]) it was 5400 ± 400 nM. The IC50 amounted to 6300 nM in the data set on A549 (setting [4]); 8500 ± 1600 nM in the data set with Saos-2; 9900 ± 400 nM in the data set with MCF-7; 4200 ± 300 nM in the data set on AGS; 4300 ± 200 nM in the data set on DU145; 3200 ± 800 nM in the data set with HeLa.
As to `Cc1nc(C)c(-c2ccnc(Nc3ccc(C(F)(F)F)cc3)n2)s1` [Compound 28, {4-(2,4-Dimethyl-thiazol-5-yl)-pyrimidin-2-yl}-(4-trifluoromethyl-phenyl)-amine], the IC50 with A549 (setting [4]) stood at 3500 nM. Besides, the “maximum percentage of mitotic cells” value with A549 cells (at a concentration of 4.4 μM, untreated wells […]) amounted to 17%. In addition, the “mitotic arrest and induction of apoptosis” value in data set [1] was “mitotic arrest and induction of apoptosis; also recorded: accumulation of mitotic cells and appearance of apoptotic cells was observed”. In addition, the “induction of programmed cell death, cytoplasmic vaculation” value in [2] is recorded as “Extensive cytoplasmic vaculation is observed”.
The melting point is the temperature, or range, at which the solid turns liquid. For `Cc1nc(C)c(-c2ccnc(Nc3ccc(Br)cc3)n2)s1` [Compound 31, (4-Bromo-phenyl)-{4-(2,4-dimethyl-thiazol-5-yl)-pyrimidin-2-yl}-amine], the melting point lay within 173 to 175 °C. Besides, the IC50 on CDK2/cyclin E (setting [5]) turned out to be 200 nM. Moreover, the IC50 with A549 (setting [4]) was 300 ± 50 nM.
As for `Cc1nc(C)c(-c2ccnc(Nc3ccc(I)cc3)n2)s1` [Compound 34, {4-(2,4-Dimethyl-thiazol-5-yl)-pyrimidin-2-yl}-(4-iodo-phenyl)-amine], the IC50 in the data set on A549 (setting [4]) was 20 nM. For the same compound, the “anti-proliferative effect (in words)” value with human tumour cell lines is on record as “even more effective anti-proliferative agent”.
As to `COCCOC(=O)c1cc(Nc2nccc(-c3sc(C)nc3C)n2)ccc1F` [Compound 98, 5-{4-(2,4-Dimethyl-thiazol-5-yl)-pyrimidin-2-ylamino}-2-fluoro-benzoic acid 2-methoxy-ethyl ester], the values for the IC50 on CDK2/cyclin E (setting [5]) and with A549 (setting [4]) were 1100 nM and 2800 ± 2100 nM, respectively.
The matching figures for `CNc1nc(C)c(-c2ccnc(Nc3ccc(F)cc3F)n2)s1` [Compound 105, (2,4-Difluoro-phenyl)-{4-(4-methyl-2-methylamino-thiazol-5-yl)-pyrimidin-2-yl}-amine]: 2000 nM and 700 ± 900 nM.
The matching figures for `CNc1nc(C)c(-c2ccnc(Nc3cc(F)cc(F)c3)n2)s1` [Compound 106, (3,5-Difluoro-phenyl)-{4-(4-methyl-2-methylamino-thiazol-5-yl)-pyrimidin-2-yl}-amine]: 10000 nM and 2800 ± 500 nM.
As to `CNc1nc(C)c(-c2ccnc(Nc3ccc(Cl)c(C(F)(F)F)c3)n2)s1` [Compound 107, (4-Chloro-3-trifluoromethyl-phenyl)-{4-(4-methyl-2-methylamino-thiazol-5-yl)-pyrimidin-2-yl}-amine], the IC50 on CDK2/cyclin E (setting [5]) stood at 3000 nM; with A549 (setting [4]), 700 ± 200 nM.
With `CC[C@]1(O)C[C@@H]2CN(CCc3c([nH]c4ccccc34)[C@@](C(=O)OC)(c3cc4c(cc3OC)N(C)[C@H]3[C@@](O)(C(=O)OC)[C@H](OC(C)=O)[C@]5(CC)C=CCN6CC[C@]43[C@@H]65)C2)C1` [Vinblastine, reference compound], the “maximum percentage of mitotic cells” value in the data set with A549 cells (at a concentration of 22 nM) is reported as 31%.

Values taken from US6699854B2, “Anti-cancer compounds” (Cyclacel Limited, priority 2000, dated 2004).
